Results taken from patent US20220387611A1, “METHODS FOR TREATING CANCER” (BicycleRD Limited, priority 2019, published 2022).
Starred links: 1 amine or outer side, 2 acyl side, 3 side chain; linkers in the order of their positions; H or OH if unused. Positions of bridges follow the written chain, without caps; N, C: chain ends. Non-standard residues stand in square brackets, D forms with d. Residues, ends and D or L forms follow the SMILES beside them. 1Nal = N[C@@H](Cc1cccc2ccccc12)C(=O)O; TBMB = c1c(C[*:1])cc(C[*:3])cc1C[*:2]; Tle = CC(C)(C)[C@H](N)C(=O)O; βAla = NCCC(=O)O; Sar = CNCC(=O)O

Key:
MT1 = MT1 (Homo sapiens, UniProt P50281); test: Effect on catalytic activity of the protease in vitro; format: biochemical
MMP16 = MMP16 (Homo sapiens, UniProt P51512); test: Binding to related MMP family member
Chain of MMP16 (P51512 120-607, species assumed): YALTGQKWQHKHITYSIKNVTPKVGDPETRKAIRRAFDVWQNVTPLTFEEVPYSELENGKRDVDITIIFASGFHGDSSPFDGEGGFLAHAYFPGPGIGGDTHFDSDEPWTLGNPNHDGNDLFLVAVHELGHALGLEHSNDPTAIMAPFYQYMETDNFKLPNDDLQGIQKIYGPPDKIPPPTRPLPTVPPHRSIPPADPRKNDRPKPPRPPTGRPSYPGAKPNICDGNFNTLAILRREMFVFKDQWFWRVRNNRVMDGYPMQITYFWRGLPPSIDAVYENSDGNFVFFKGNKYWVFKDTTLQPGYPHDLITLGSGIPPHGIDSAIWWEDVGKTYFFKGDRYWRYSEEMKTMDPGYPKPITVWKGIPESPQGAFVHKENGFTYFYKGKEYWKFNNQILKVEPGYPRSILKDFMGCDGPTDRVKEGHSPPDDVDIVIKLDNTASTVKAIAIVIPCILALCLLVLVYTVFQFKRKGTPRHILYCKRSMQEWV

Pro-MMP1 = molecular target: T1, Pro-MMP1 (Homo sapiens, UniProt P03956); test: Binding to related MMP family member
T1 construct: MMP family members tested (MMP15, MMP16, MMP24, MMP1, Pro-MMP1, MMP2)
T1 sequence (P03956 20-469 limits assumed): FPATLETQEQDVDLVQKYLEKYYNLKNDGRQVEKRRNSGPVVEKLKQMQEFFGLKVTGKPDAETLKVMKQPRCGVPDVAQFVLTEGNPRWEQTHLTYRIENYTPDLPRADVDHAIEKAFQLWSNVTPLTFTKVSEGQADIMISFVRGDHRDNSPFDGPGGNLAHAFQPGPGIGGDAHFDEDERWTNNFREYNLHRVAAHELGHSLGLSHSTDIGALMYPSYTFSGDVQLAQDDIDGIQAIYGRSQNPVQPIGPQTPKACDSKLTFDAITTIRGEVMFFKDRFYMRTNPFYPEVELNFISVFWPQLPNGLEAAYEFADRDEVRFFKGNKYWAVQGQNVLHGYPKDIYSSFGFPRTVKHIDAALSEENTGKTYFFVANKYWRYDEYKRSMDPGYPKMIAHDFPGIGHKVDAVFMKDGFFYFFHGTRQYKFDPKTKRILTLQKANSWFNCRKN

MMP1 [1] = molecular target: T2, MMP1 (Homo sapiens, UniProt P03956); test: Binding to related MMP family member
T2 sequence (P03956 100-469): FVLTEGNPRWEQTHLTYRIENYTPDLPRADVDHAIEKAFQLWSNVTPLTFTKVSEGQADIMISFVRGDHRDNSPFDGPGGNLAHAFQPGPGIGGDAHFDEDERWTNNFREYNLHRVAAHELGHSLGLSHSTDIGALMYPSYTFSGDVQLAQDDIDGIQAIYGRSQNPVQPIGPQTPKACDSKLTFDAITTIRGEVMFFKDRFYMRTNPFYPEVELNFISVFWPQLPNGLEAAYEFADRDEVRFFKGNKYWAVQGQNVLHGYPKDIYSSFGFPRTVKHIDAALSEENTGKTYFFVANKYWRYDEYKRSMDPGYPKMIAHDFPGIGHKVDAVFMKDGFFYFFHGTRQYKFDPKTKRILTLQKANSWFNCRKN

MMP9 = MMP9 (Homo sapiens, UniProt P14780); test: Effect on related MMP catalytic activity; format: biochemical; conditions: in vitro
Chain of MMP9 (P14780 94-707, species assumed): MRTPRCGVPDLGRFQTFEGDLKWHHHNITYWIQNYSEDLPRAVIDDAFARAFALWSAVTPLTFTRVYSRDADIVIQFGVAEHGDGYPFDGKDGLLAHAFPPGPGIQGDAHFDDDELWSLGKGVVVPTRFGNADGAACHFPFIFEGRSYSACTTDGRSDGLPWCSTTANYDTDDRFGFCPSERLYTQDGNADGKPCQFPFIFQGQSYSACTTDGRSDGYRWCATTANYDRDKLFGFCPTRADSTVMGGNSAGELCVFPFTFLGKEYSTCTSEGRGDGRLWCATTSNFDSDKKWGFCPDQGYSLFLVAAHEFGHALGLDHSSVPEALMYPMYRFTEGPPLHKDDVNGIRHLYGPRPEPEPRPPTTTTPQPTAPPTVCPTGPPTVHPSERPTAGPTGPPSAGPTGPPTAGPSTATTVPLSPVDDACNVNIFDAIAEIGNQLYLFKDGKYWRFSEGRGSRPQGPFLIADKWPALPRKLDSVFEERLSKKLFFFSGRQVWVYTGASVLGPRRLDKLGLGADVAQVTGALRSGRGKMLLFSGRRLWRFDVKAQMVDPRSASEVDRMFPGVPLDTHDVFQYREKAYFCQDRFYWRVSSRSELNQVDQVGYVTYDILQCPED

MMP24 = MMP24 (Homo sapiens, UniProt Q9Y5R2); test: Binding to related MMP family member
Chain of MMP24 (Q9Y5R2 156-645, species assumed): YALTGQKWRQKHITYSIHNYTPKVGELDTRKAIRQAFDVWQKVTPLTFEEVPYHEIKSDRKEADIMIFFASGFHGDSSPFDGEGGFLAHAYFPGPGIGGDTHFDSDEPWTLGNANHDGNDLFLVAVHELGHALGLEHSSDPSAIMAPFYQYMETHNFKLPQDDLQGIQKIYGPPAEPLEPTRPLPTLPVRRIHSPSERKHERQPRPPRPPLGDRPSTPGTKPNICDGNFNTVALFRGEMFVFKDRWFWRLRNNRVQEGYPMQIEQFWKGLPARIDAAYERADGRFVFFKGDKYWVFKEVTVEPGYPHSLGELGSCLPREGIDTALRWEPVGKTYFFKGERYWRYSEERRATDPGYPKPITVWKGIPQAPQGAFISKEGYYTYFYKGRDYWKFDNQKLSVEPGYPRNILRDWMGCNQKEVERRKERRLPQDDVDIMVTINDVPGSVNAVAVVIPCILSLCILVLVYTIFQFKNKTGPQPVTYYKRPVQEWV

MMP2 [2] = molecular target: T3, MMP2 (Homo sapiens, UniProt P08253); test: Binding to related MMP family member
T3 sequence (P08253 110-660): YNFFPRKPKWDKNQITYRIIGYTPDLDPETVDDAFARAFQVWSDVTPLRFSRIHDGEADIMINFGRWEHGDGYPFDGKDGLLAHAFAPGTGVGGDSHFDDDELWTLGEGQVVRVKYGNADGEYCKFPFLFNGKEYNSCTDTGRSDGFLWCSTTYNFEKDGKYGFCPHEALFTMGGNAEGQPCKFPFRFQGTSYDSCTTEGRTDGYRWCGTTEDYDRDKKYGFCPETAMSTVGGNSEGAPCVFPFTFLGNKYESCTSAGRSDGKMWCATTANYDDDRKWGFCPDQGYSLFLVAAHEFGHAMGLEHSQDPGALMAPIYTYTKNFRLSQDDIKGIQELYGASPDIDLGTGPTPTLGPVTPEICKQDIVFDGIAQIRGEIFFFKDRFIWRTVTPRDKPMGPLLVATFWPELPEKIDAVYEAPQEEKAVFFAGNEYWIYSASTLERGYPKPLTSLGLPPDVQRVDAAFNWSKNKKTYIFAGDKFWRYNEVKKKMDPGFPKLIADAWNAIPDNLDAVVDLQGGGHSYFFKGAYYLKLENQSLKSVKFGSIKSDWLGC

MMP2 [3] = molecular target: T3, MMP2; test: Effect on related MMP catalytic activity; format: biochemical; conditions: in vitro
[4] = tested on: cell migration or invasion; test: Effect on cell migration or invasion; format: cell-based; conditions: in vitro
MMP15 = MMP15 (Homo sapiens, UniProt P51511); test: Binding to related MMP family member
Chain of MMP15 (P51511 132-669, species assumed): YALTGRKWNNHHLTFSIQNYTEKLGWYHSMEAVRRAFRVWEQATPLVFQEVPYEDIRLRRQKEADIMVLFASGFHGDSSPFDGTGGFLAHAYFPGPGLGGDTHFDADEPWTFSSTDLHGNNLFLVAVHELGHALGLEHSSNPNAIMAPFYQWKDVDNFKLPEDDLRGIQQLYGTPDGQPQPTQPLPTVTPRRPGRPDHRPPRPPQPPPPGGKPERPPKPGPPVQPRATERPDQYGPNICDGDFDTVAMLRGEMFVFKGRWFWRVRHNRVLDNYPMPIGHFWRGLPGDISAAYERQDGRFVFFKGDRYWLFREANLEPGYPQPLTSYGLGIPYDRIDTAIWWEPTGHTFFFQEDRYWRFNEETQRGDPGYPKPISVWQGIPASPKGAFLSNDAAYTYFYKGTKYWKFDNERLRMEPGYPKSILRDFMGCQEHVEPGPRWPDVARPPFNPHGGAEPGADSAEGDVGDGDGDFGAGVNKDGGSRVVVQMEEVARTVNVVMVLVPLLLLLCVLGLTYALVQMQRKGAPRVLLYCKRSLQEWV

MMP1 [5] = molecular target: T2, MMP1; test: Effect on related MMP catalytic activity; format: biochemical; conditions: in vitro
catalytic domain of MT1 = catalytic domain of MT1 (Homo sapiens, UniProt P50281); test: Bicycle peptide binding to catalytic domain
[6] = tested on: MT1-positive tumor xenografts; test: Tumor localization after IV injection into mice bearing MT1-positive tumor xenografts; conditions: mouse, in vivo

| Compound | impact on the catalytic activity of the protease (MT1) (MT1) | binding toward MMP16 (MMP16) | binding toward Pro-MMP1 (Pro-MMP1) | binding toward MMP1 (MMP1 [1]) | impact on MMP9 catalytic activity (MMP9) | binding toward MMP24 (MMP24) | binding toward MMP2 (MMP2 [2]) | impact on MMP2 catalytic activity (MMP2 [3]) | impact on cell migration or invasion [4] | binding toward MMP15 (MMP15) | impact on MMP1 catalytic activity (MMP1 [5]) | binding to the catalytic domain (catalytic domain of MT1) | tumor localization [6] |
| --- | --- | --- | --- | --- | --- | --- | --- | --- | --- | --- | --- | --- | --- |
| C[C@H](NC(=O)CN(C)C(=O)CN(C)C(=O)CN(C)C(=O)CN(C)C(=O)CN(C)C(=O)CN(C)C(=O)CN(C)C(=O)CN(C)C(=O)CN(C)C(=O)CN(C)C(=O)CCN)C(=O)N[C@H]1CSCc2cc3cc(c2)CSC[C@H](NC(=O)[C@@H](C)NC(=O)[C@H](Cc2cccc4ccccc24)NC(=O)[C@H](CCC(=O)O)NC(=O)[C@H](CC(N)=O)NC(=O)[C@@H](C)NC1=O)C(=O)N[C@@H](CCC(=O)O)C(=O)N[C@@H](CC(=O)O)C(=O)N[C@@H](Cc1ccccc1)C(=O)N[C@@H](Cc1ccc(O)cc1)C(=O)N[C@@H](CC(=O)O)C(=O)N[C@@H](C(C)(C)C)C(=O)N[C@H](C(N)=O)CSC3 [N241] (H-[βAla][Sar][Sar][Sar][Sar][Sar][Sar][Sar][Sar][Sar][Sar]AC[dA]NE[1Nal][dA]CEDFYD[Tle]C-NH2; linker 13-19-26 via TBMB) | no direct impact | no binding | no binding | no binding | no direct impact | no binding | no binding | no direct impact | no direct impact | no binding | no direct impact | no binding |  |
| C[C@H](NC(=O)CN(C)C(=O)CN(C)C(=O)CN(C)C(=O)CN(C)C(=O)CN(C)C(=O)CN(C)C(=O)CN(C)C(=O)CN(C)C(=O)CN(C)C(=O)CN(C)C(=O)CCN)C(=O)N[C@H]1CSCc2cc3cc(c2)CSC[C@H](NC(=O)[C@@H](C)NC(=O)[C@H](Cc2cccc4ccccc24)NC(=O)[C@H](CCC(=O)O)NC(=O)[C@H](CC(N)=O)NC(=O)[C@@H](C)NC1=O)C(=O)N[C@@H](CCC(=O)O)C(=O)N[C@@H](CC(=O)O)C(=O)N[C@@H](Cc1ccccc1)C(=O)N[C@@H](Cc1ccc(O)cc1)C(=O)N[C@@H](CC(=O)O)C(=O)N[C@@H](C(C)(C)C)C(=O)N[C@H](C(N)=O)CSC3 [^177Lu-loaded N241, metal not drawn] (H-[βAla][Sar][Sar][Sar][Sar][Sar][Sar][Sar][Sar][Sar][Sar]AC[dA]NE[1Nal][dA]CEDFYD[Tle]C-NH2; linker 13-19-26 via TBMB; N-terminus and C-terminus assumed) |  |  |  |  |  |  |  |  |  |  |  |  | rapid tumor localization |
